Here are results for 1 compound from patent US20240207208A1, “Treatments for Diabetes Mellitus and Obesity” (The Board of Trustees of the Leland Stanford Junior …, priority 2011, published 2024).

Assay [1] in a line: Oral glucose tolerance test (OGTT) after local RTX treatment of the intestine. Format: in vivo, Sprague-Dawley rats. From the text:
(§1) Adult male Sprague-Dawley rats (Harlan, Indianapolis, IN) weighing 280-350 g were used in all the experiments. The animal protocol was approved by the Institutional Animal Care and Use Committee of the Stanford University Medical Center.
(§2) Rats were randomly divided into six groups: 1, vehicle solution treated on the surface of duodenum (n=4); 2, RTX solution treated on the surface of duodenum (n=4); 3, vehicle solution treated on the surface of ileum (1 rat) or colon (1 rat) (n=2); 4, RTX solution treated on the surface of ileum (2 rats) or colon (1 rat) (n=3); 5. Vehicle solution infuse into duodenum (n=2); 6. RTX solution infuse into duodenum (n=3).
Rats were fasted overnight prior to surgery having free access to water. Under 2% isoflurane-induced anesthesia, the abdomen was opened through a midline incision for the duodenum treatment and lower line for ileum or colon treatment. These intestines were exposed and protected with warm saline sponges around the intestine. Procedure 1: RTX application on the surface of intestine: The cotton applicator with RTX((0.32 mM) or vehicle solution were gently applied topically to the outer surface of entire duodenum (about 10 cm from the beginning of the duodenum) for 5 min. Same treatment in ileum and colon groups were applied on about 10 cm long of distal ileum and colon. Procedure 2: RTX or vehicle infused into duodenum: Two atraumatic clamps used to block on beginning and distal of duodenum. 0.8 ml of 0.32 mM RTX or vehicle was infused into duodenum through a glass syringe with a 27 gauge needle. After 30 min the RTX or vehicle solution were withdrawn and the clamps were released. After treatment, the abdominal incisions were closed. […]
Post RTX treatment 1st, 3rd and 7th week all the rats were performed the OGTT. After 17 hours overnight fasting, blood glucose was measured in conscious rats by tail-stick, using a glucose meter (Bayer Healthcare LLC, Mishawaka, IN). OGTT was measured before (baseline) and each 15 minutes for 2 hours after oral gavage glucose (1 g/kg body weight). […]

A short description of assay [2]: Body weight change monitoring after local RTX treatment of the intestine. The arrangement: body weight: unit not given here. The conditions noted are these: for body weight: mean±s.e. Format: in vivo, Sprague-Dawley rats.
Excerpt: as §1, §2
Rats were fasted overnight prior to surgery having free access to water. Under 2% isoflurane-induced anesthesia, the abdomen was opened through a midline incision for the duodenum treatment and lower line for ileum or colon treatment. These intestines were exposed and protected with warm saline sponges around the intestine. Procedure 1: RTX application on the surface of intestine: The cotton applicator with RTX((0.32 mM) or vehicle solution were gently applied topically to the outer surface of entire duodenum (about 10 cm from the beginning of the duodenum) for 5 min. Same treatment in ileum and colon groups were applied on about 10 cm long of distal ileum and colon. Procedure 2: RTX or vehicle infused into duodenum: Two atraumatic clamps used to block on beginning and distal of duodenum. 0.8 ml of 0.32 mM RTX or vehicle was infused into duodenum through a glass syringe with a 27 gauge needle. After 30 min the RTX or vehicle solution were withdrawn and the clamps were released. After treatment, the abdominal incisions were closed.
RTX solution: RTX stock solution: 1 mg RTX+10% ethanol+10% Tween-80 in saline to make 1 μg RTX/μl in stock solution. RTX work solution (0.32 mM): stock RTX solution (0.2 ml)+Saline (0.8 ml); Vehicle (like stock solution without RTX)
The body weight of rats was measured before RTX treatment and each blood glucose testing day.
Data are presented as means±s.e. Data were compared using Student's t-test. Differences were considered significant at <0.05.

Take `C=C(C)[C@]12C[C@@H](C)[C@@]34O[C@](Cc5ccccc5)(O[C@@H]1[C@@H]3C=C(COC(=O)Cc1ccc(O)c(OC)c1)C[C@]1(O)C(=O)C(C)=C[C@@H]41)O2` [RTX, Resiniferatoxin]: the “glucose tolerance compared with vehicle group (OGTT)” value in assay [1] (0.8 ml of 0.32 mM RTX infused into duodenum, 30 min, 2 hours testing time, all testing days) is listed as “not significantly different”; in assay [1] (RTX 0.32 mM topically on the surface of duodenum, 5 min, 30 and 45-minute peak levels, 1st, 3rd and 7th week post treatment, P<0.05) it was “better glucose tolerance”; in assay [1] (RTX 0.32 mM topically on the surface of ileum or colon, 2 hours testing time, all testing days), “not significantly different”. The body weight in assay [2] (RTX infused into duodenum, 1st week post treatment) amounted to 102.4±3.0; in assay [2] (RTX infused into duodenum, 3rd week post treatment) it was 123.1±1.6; in assay [2] (RTX infused into duodenum, 7th week post treatment) it was 136.3±2.5; in assay [2] (RTX on the surface of duodenum, 1st week post treatment, P<0.05 vs vehicle and vs RTX infusion) it was 92.0±1.0; in assay [2] (RTX on the surface of duodenum, 3rd week post treatment, P<0.05 vs RTX infusion) it was 110.5±2.6; in assay [2] (RTX on the surface of duodenum, 7th week post treatment, P<0.05 vs RTX infusion), 118.9±0.9. Also, the “body weight compared with vehicle group” value was “not significantly different” in assay [2] (RTX infused into duodenum, all measurement days); “not significantly different” in assay [2] (RTX on the surface of duodenum, 3rd and 7th week post treatment); “not significantly different” in assay [2] (RTX on the surface of ileum or colon, all measurement days).
